Results published in patent publication US10987316B2, “Compositions and methods for transdermal delivery of tertiary amine drugs” (priority 2013, dated 2021).

Assay: In vitro flux of rivastigmine liquid across human skin only
Type: in vitro ADME
Details: rivastigmine liquid infinite dose 0.5 ml/cm^2
Method: The flux of rivatsigmine liquid (“infinite-dose” of 0.5 ml/cm^2) across systems prepared using different rate controlling membranes (with different vinyl acetate contents and different thicknesses) with or without a 5 mg/cm^2 silicone face adhesive was assessed in an in vitro flux study, as shown below.

SMILES: CCN(C)C(=O)Oc1cccc([C@H](C)N(C)C)c1 [Rivastigmine, (S)-3-[1-(dimethylamino)ethyl]phenyl ethylmethylcarbamate]
- Rivastigmine steady-state flux, human skin only: 32 ± 14 μg/cm^2/hr
